Data taken from patent US11897796B2, “Compositions of heterocyclic compounds and uses as sulfidogenesis inhibitors” (ChampionX USA Inc., priority 2020, dated 2024).
Like-named read-outs stand apart in the source and are kept apart here.

Legend:
[1] = system: sulfate reducing microorganisms
Experimental: Sample preparation and test conditions. The sulfidogenesis inhibitor MBO was tested using a pressurized bioreactor system. Two sand packed bioreactors were used to establish a sour population of sulfate reducing microorganisms with a seawater mixture for one month. The pressurized bioreactors maintained a flow rate of 0.05 mL/minute and were held at a temperature of 30° C. and a pressure of 1000 psig. Once both bioreactors contained sufficient sulfide in the effluent, one bioreactor remained untreated (control bioreactor) and the other bioreactor was dosed with MBO (test bioreactor) throughout the remaining four months of the study. The sulfide levels were measured in the control and test bioreactors weekly. MBO was dosed continuously in increasing increments at 25, 50, 100, and 150 ppm for roughly five weeks of the experiment. Next, a 4-hour batch treatment of MBO at 500 ppm was also tested twice followed by a low continuous dosage of MBO at 80 ppm and 100 ppm, respectively. The pH of the system was then decreased from 8.5 to 7.5 and then 7.5 to 6.5 to observe the effect of pH on MBO's efficacy at inhibiting sulfidogenesis. Once the pH of the bioreactor had stabilized at 6.5, MBO was dosed continuously in decreasing increments at 150 ppm, 100 ppm, 80 ppm and 50 ppm. At the end of the study, the dosing of MBO was ceased to monitor when sulfide levels would return in the test bioreactor.
The pH measured in the system and the dosage of MBO throughout the study is recorded as well.

[2] = system: sulfur-utilizing prokaryotes; conditions: after 8 weeks; for Average reduction in biogenic sulfide: compared to untreated; for Average Sulfide: field water, 37° C.
Experimental: Sample Preparation and Test Conditions. Field water samples were collected and shipped under anoxic conditions. Prior to setting up the bottle test, the water was sparged with carbon dioxide in a nitrogen environment overnight to remove the existing hydrogen sulfide. The water sample was then supplemented with 50 mg/L acetate, 5 mg/L propionate, and 5 mg/L butyrate and trace elements and vitamins. Fluids (100 mL) were aliquoted into 125 mL glass serum bottles containing a carbon steel 1018 ball bearing. Triplicate experiments were performed. Three bottles were left untreated and three bottles were treated each with 50 ppm and 80 ppm of the desired chemistry. Samples were incubated at 37° C. for 8 weeks.
(§1) A sulfide test kit (Code 4456-01, available from LaMotte) was used to test the efficacy of 3,3′-methylenebis[5-methyloxazolidine]

[3] = system: sulfur-utilizing prokaryotes; conditions: after 6 weeks; for Average Sulfide: Source 2 field water, 37° C.
Experimental: Sample Preparation and Test Conditions. Field water samples were treated with additional organic acids (e.g., Source 2) and were collected and shipped under anoxic conditions. Prior to setting up the bottle test, the water was sparged with carbon dioxide in a nitrogen environment overnight to remove the existing hydrogen sulfide. The water sample was then supplemented with 1 mM acetate, trace elements, and vitamins. Fluids (100 mL) were aliquoted into 125 mL glass serum bottles containing a carbon steel 1018 ball bearing. Triplicate experiments were performed. Three bottles were left untreated and three bottles were treated each at a concentration of 80 ppm, 120 ppm, and 150 ppm of the desired chemistry based on the total weight of the sample. Samples were incubated at 37° C. for 6 weeks.
as §1

CC1CN(CN2COC(C)C2)CO1 (stereo not drawn) [MBO, 3,3′-methylenebis[5-methyloxazolidine]]
Test Bioreactor Sulfide ([1]; Day 21 (as printed, between days 30 and 35), dosage of MBO 25 ppm, pH 8.5): 44.6 mg/L | Test Bioreactor Sulfide ([1]; Day 30, dosage of MBO 25 ppm, pH 8.5): 34.9 mg/L | Test Bioreactor Sulfide ([1]; Day 35, dosage of MBO 25 ppm, pH 8.5): 45.7 mg/L | Test Bioreactor Sulfide ([1]; Day 37, dosage of MBO 50 ppm, pH 8.5): 46.2 mg/L | Test Bioreactor Sulfide ([1]; Day 38, dosage of MBO 50 ppm, pH 8.5): 48.7 mg/L | Test Bioreactor Sulfide ([1]; Day 42, dosage of MBO 50 ppm, pH 8.5): 44.8 mg/L | Test Bioreactor Sulfide ([1]; Day 44, dosage of MBO 100 ppm, pH 8.5): 44.2 mg/L | Test Bioreactor Sulfide ([1]; Day 45, dosage of MBO 100 ppm, pH 8.5): 41.0 mg/L | Test Bioreactor Sulfide ([1]; Day 46, dosage of MBO 100 ppm, pH 8.5): 10.3 mg/L | Test Bioreactor Sulfide ([1]; Day 49, dosage of MBO 100 ppm, pH 8.5): 3.1 mg/L | Test Bioreactor Sulfide ([1]; Day 51, dosage of MBO 100 ppm, pH 8.5): 0.7 mg/L | Test Bioreactor Sulfide ([1]; Day 52, dosage of MBO 100 ppm, pH 8.5): 0.5 mg/L | Test Bioreactor Sulfide ([1]; Day 53, dosage of MBO 100 ppm, pH 8.5): 3.1 mg/L | Test Bioreactor Sulfide ([1]; Day 56, dosage of MBO 100 ppm, pH 8.5): 5.3 mg/L | Test Bioreactor Sulfide ([1]; Day 58, dosage of MBO 150 ppm, pH 8.5): 4.9 mg/L | Test Bioreactor Sulfide ([1]; Day 60, dosage of MBO 150 ppm, pH 8.5): 1.0 mg/L | Test Bioreactor Sulfide ([1]; Day 63, dosage of MBO 150 ppm, pH 8.5): 21.5 mg/L | Test Bioreactor Sulfide ([1]; Day 65, dosage of MBO 150 ppm, pH 8.5): 19.9 mg/L | Test Bioreactor Sulfide ([1]; Day 67, dosage of MBO 150 ppm, pH 8.5): 25.7 mg/L | Test Bioreactor Sulfide ([1]; Day 70, dosage of MBO 150 ppm, pH 8.5): 29.1 mg/L | Test Bioreactor Sulfide ([1]; Day 72, dosage of MBO 0 ppm (dosing paused after 150 ppm), pH 8.5): 29.4 mg/L | Test Bioreactor Sulfide ([1]; Day 74, dosage of MBO 0 ppm (dosing paused after 150 ppm), pH 8.5): 21.9 mg/L | Test Bioreactor Sulfide ([1]; Day 77, dosage of MBO 0 ppm (dosing paused after 150 ppm), pH 8.5): 32.0 mg/L | Test Bioreactor Sulfide ([1]; Day 78, dosage of MBO 500 ppm (4 hours batch) + 80 ppm, pH 8.5): 37.2 mg/L | Test Bioreactor Sulfide ([1]; Day 79, dosage of MBO 80 ppm after 500 ppm batch, pH 8.5): 37.8 mg/L | Test Bioreactor Sulfide ([1]; Day 80, dosage of MBO 80 ppm after 500 ppm batch, pH 8.5): 23.0 mg/L | Test Bioreactor Sulfide ([1]; Day 81, dosage of MBO 80 ppm after 500 ppm batch, pH 8.5): 27.7 mg/L | Test Bioreactor Sulfide ([1]; Day 84, dosage of MBO 80 ppm after 500 ppm batch, pH 8.5): 31.8 mg/L | Test Bioreactor Sulfide ([1]; Day 86, dosage of MBO 80 ppm after 500 ppm batch, pH 3.5 (so in the source)): 32.0 mg/L | Test Bioreactor Sulfide ([1]; Day 88, dosage of MBO 0 ppm (dosing paused after 80 ppm), pH 8.5): 29.1 mg/L | Test Bioreactor Sulfide ([1]; Day 91, dosage of MBO 0 ppm (dosing paused after 80 ppm), pH 8.5): 25.6 mg/L | Test Bioreactor Sulfide ([1]; Day 93, dosage of MBO 500 ppm (4 hours batch) + 100 ppm, pH 8.5): 30.7 mg/L | Test Bioreactor Sulfide ([1]; Day 94, dosage of MBO 100 ppm after 500 ppm batch, pH 8.5): 24.1 mg/L | Test Bioreactor Sulfide ([1]; Day 95, dosage of MBO 100 ppm after 500 ppm batch, pH 8.5): 24.2 mg/L | Test Bioreactor Sulfide ([1]; Day 98, dosage of MBO 100 ppm after 500 ppm batch, pH 8.5): 20.3 mg/L | Test Bioreactor Sulfide ([1]; Day 100, dosage of MBO 100 ppm, pH 7.5): 20.1 mg/L | Test Bioreactor Sulfide ([1]; Day 101, dosage of MBO 100 ppm, pH 7.5): 9.9 mg/L | Test Bioreactor Sulfide ([1]; Day 102, dosage of MBO 100 ppm, pH 7.5): 16.6 mg/L | Test Bioreactor Sulfide ([1]; Day 105, dosage of MBO 100 ppm, pH 7.5): 22.5 mg/L | Test Bioreactor Sulfide ([1]; Day 107, dosage of MBO 100 ppm, pH 6.5): 20.2 mg/L | Test Bioreactor Sulfide ([1]; Day 108, dosage of MBO 100 ppm, pH 6.5): 23.4 mg/L | Test Bioreactor Sulfide ([1]; Day 109, dosage of MBO 100 ppm, pH 6.5): 20.9 mg/L | Test Bioreactor Sulfide ([1]; Day 112, dosage of MBO 100 ppm, pH 6.5): 18.2 mg/L | Test Bioreactor Sulfide ([1]; Day 114, dosage of MBO 150 ppm, pH 6.5): 16.3 mg/L | Test Bioreactor Sulfide ([1]; Day 115, dosage of MBO 150 ppm, pH 6.5): 7.7 mg/L | Test Bioreactor Sulfide ([1]; Day 116, dosage of MBO 150 ppm, pH 6.5): 2.9 mg/L | Test Bioreactor Sulfide ([1]; Day 119, dosage of MBO 150 ppm, pH 6.5): 0.7 mg/L | Test Bioreactor Sulfide ([1]; Day 121, dosage of MBO 150 ppm, pH 6.5): 0.5 mg/L | Test Bioreactor Sulfide ([1]; Day 122, dosage of MBO 150 ppm, pH 6.5): 0.5 mg/L | Test Bioreactor Sulfide ([1]; Day 123, dosage of MBO 150 ppm, pH 6.5): 0.5 mg/L | Test Bioreactor Sulfide ([1]; Day 126, dosage of MBO 150 ppm, pH 6.5): 0.5 mg/L | Test Bioreactor Sulfide ([1]; Day 128, dosage of MBO 100 ppm (decreasing increments), pH 6.5): 0.5 mg/L | Test Bioreactor Sulfide ([1]; Day 129, dosage of MBO 100 ppm (decreasing increments), pH 6.5): 0.5 mg/L | Test Bioreactor Sulfide ([1]; Day 130, dosage of MBO 100 ppm (decreasing increments), pH 6.5): 0.5 mg/L | Test Bioreactor Sulfide ([1]; Day 133, dosage of MBO 100 ppm (decreasing increments), pH 6.5): 0.5 mg/L | Test Bioreactor Sulfide ([1]; Day 135, dosage of MBO 80 ppm (decreasing increments), pH 6.5): 0.5 mg/L | Test Bioreactor Sulfide ([1]; Day 136, dosage of MBO 80 ppm (decreasing increments), pH 6.5): 0.5 mg/L | Test Bioreactor Sulfide ([1]; Day 137, dosage of MBO 80 ppm (decreasing increments), pH 6.5): 0.5 mg/L | Test Bioreactor Sulfide ([1]; Day 140, dosage of MBO 80 ppm (decreasing increments), pH 6.5): 0.5 mg/L | Test Bioreactor Sulfide ([1]; Day 141, dosage of MBO 50 ppm (decreasing increments), pH 6.5): 0.5 mg/L | Test Bioreactor Sulfide ([1]; Day 144, dosage of MBO 50 ppm (decreasing increments), pH 6.5): 0.5 mg/L | Test Bioreactor Sulfide ([1]; Day 147, dosage of MBO 50 ppm (decreasing increments), pH 6.5): 0.5 mg/L | Test Bioreactor Sulfide ([1]; Day 150, dosage of MBO 0 ppm (dosing ceased at end of study), pH 6.5): 0.5 mg/L | Test Bioreactor Sulfide ([1]; Day 151, dosage of MBO 0 ppm (dosing ceased at end of study), pH 6.5): 0.5 mg/L | Test Bioreactor Sulfide ([1]; Day 154, dosage of MBO 0 ppm (dosing ceased at end of study), pH 6.5): 0.5 mg/L | sulfide levels in the test bioreactor, lowest reached ([1]; dosage of MBO at 100 ppm, initial decrease, sulfide levels started to increase again afterwards): 0.5 mg/L | sulfide levels in the test bioreactor ([1]; pH 6.5, dosing MBO at 150 ppm, stayed throughout remainder of study through decreasing dosages): 0.5 mg/L | effect on sulfide levels in the test bioreactor ([1]; two high batch dosages of MBO at 500 ppm followed by low continuous dosage at 80 and 100 ppm): did not further decrease sulfide levels | Average reduction in biogenic sulfide ([2]; MBO 50 ppm): 37.03% | Average Sulfide ([2]; MBO 50 ppm): 4.64 ppm | Average reduction in biogenic sulfide ([2]; MBO 80 ppm): 93.81% | Average Sulfide ([2]; MBO 80 ppm): 0.46 ppm | Average Sulfide ([3]; MBO 80 ppm): 0.09 ppm | Average reduction in biogenic sulfide ([3]; MBO 80 ppm): 98.4% | Average Sulfide ([3]; MBO 120 ppm): 0.09 ppm | Average reduction in biogenic sulfide ([3]; MBO 120 ppm): 98.4% | Average Sulfide ([3]; MBO 150 ppm): 0.13 ppm | Average reduction in biogenic sulfide ([3]; MBO 150 ppm): 97.8%
